From publication PMC4721142, “Randomized controlled studies on the efficacy of antiarthritic agents in inhibiting cartilage degeneration and pain associated with progression of osteoarthritis in the rat” (Arthritis Research & Therapy, 2016)
Where “and” joins values, the source holds several entries; their conditions need not be identical. Equal values may be shown once.

Experiments:
MIA rat model of OA = assay: MIA trial 3 histopathology (same doses as dRS test); format: in vivo; design: key to Cartilage matrix damage score: 5-point cartilage matrix score; key to Mean of all cartilage loss: approximate % loss, mean of four articular surfaces; Subchondral bone sclerosis: scale not given here; conditions: group mean
From the text: For MIA trial 3, joints were fixed and toluidine blue–stained sections of the rat knees were comprehensively analyzed from test and control subjects as detailed in Additional file 1. Briefly, a 5-point cartilage matrix score was derived based upon (1) approximate percentage of total loss of articular chondrocytes for each of four articular surfaces, (2) estimated proteoglycan loss (via Safranin O staining), and (3) loss of interstitial matrix. Chondrocyte necrosis and proteolytic degeneration of the femurs were scored on a 5-point scale as in trial 1. A femoral cartilage degeneration score and a three-zone sum of the tibial cartilage degeneration scores (mean of three levels) were also summed to create a total cartilage degeneration score. The mean osteophyte score for each joint was added to this value to create a total joint score with matrix. Other parameters assessed included synovial membrane inflammation and proliferation. Representative images from each group were also collected (see, e.g., Fig. 4 and Additional file 1: Fig. S55, Trial 3). […]
Hawes, APS, Pathologist). Treatments were masked during the assessment. Chondrocyte necrosis and proteolytic degeneration of the femurs were scored on a 5 point scale with 0 = None; 1 = <10%; […]
For the histopathology of the MIA model in Trial 3, completed by Bolder BioPATH (and Dr.
Bendele), a tolouidine blue stained slide containing both halves of the joint was comprehensively analyzed from test and control subjects. Approximate % of total loss of articular chondrocytes, loss of proteoglycan and loss of collagenous matrix were determined for each articular surface (medial tibial plateau (MTP), lateral tibial plateau (LTP), medial femoral condyle (MFC), and lateral femoral condyle (LFC). Chondrocyte loss was quantified by estimating the area of cartilage in which there were no apparently viable chondrocytes and proteoglycan loss was quantified by estimating differences in intensity of toluidine blue matrix staining. Loss of interstitial matrix was an indication of disruption and diminished type II collagen. Based on the mean % loss for the four surfaces in these parameters, a five point matrix score was utilized with the subchondral bone resorption, subchondral bone sclerosis and osteophyte scores to achieve a total joint score. […]
[…] steps, stained with toluidine blue (with a right and left halve per section), and analyzed for cartilage degeneration, proteoglycan loss, collagen damage, and osteophyte formation. Results were averaged across the 3 sections for an overall semi-quantitative score. Regional differences across the tibial plateau were taken into consideration by dividing each section into 3 zones delineated using an ocular micrometer (outside, middle, and inside). Scores were based on the percentage of area affected within the zone.
Cartilage degeneration in the tibia was scored on a five point scale for each zone, collagen damage across the medial tibial plateau was measured by total width for each grade damage. Cartilage degeneration in the tibia was scored none to severe (numerical values 0-5) for each zone (area defined by micrometer) using the following criteria: […]

SW982 = assay: Synovial toxicity (CellTiter-Glo), with or without TNF-α
Experimental: Viability was measured with the CellTiter-Glo luminescent viability assay (Promega). […] To more accurately predict the effects of the drugs on osteoarthritic synovium, cells were tested with or without TNF-α (20 ng/ml; BioSource).
In Vitro Toxicity Testing with a Synovial Cell Line
Compounds were tested for synovial toxicity using SW982 cells alone or in the presence of TNF as

[1] = published half-life; cited from earlier work
[2] = Comparison of in vitro screens: overlapping effective and nontoxic range; conditions: for Overlapping effective and nontoxic range: inhibits with minimal or no toxicity to synovium or cartilage, overlapping range if effective in more than one assay;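 on all read-outs here: compares non-toxic ranges in synovial cells and chondrocytes with effective ranges against NFkB, MMP-13 and osteoclasts, giving their overlap as the predicted efficacy range in uM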
RAW 264.7 cells = assay: RANKL-mediated osteoclastogenesis / matrix resorption (Osteologic) assay; format: cell-based, murine; conditions: for minimal effective concentration: Mus musculus, RAW264.7, 168 h, read-out: Lowest inhibitory concentration, matrix resorption
Method in brief: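 Agents were tested during or after differentiation. Wells were bleached and resorption pits were quantified by image analysis versus RANKL-only controls, using an unpaired t-test.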

[3] = system: Normal human articular chondrocytes; assay: Cytotoxicity to chondrogenic pellets (CellTiter-Blue)
Experimental: Differentiated chondrogenic pellets were used both to test the ability of drugs to block MMP-13 activity and to test for drug toxicity. […] Supernatants were collected and analyzed for MMP-13 using an enzyme-linked immunosorbent assay (GE Healthcare Life Sciences, Little Chalfont, UK). Cytotoxicity to pellets was assessed using CellTiter-Blue (Promega).

Row | Compound | Bone resorption percent, LFC (MIA rat model of OA; i.a. weekly) [%] | Bone resorption percent, LTP (MIA rat model of OA; i.a. weekly) [%] | Bone resorption percent, MFC (MIA rat model of OA; i.a. weekly) [%] | Bone resorption percent, MTP (MIA rat model of OA; i.a. weekly) [%] | Bone resorption percent, mean (MIA rat model of OA; i.a. weekly) [%] | Bone resorption score (MIA rat model of OA; i.a. weekly) | Cartilage matrix damage score (MIA rat model of OA; i.a. weekly) | Mean of all cartilage loss (MIA rat model of OA; i.a. weekly) | Osteophyte measure (MIA rat model of OA; i.a. weekly) [µm] | Osteophyte score (MIA rat model of OA; i.a. weekly) | Subchondral bone sclerosis (MIA rat model of OA; i.a. weekly) | Total joint score w/o matrix (MIA rat model of OA; i.a. weekly) | Total joint score with matrix (MIA rat model of OA; i.a. weekly) | Non-toxic range (Synovial) (SW982) | t 1/2 [1] | Overlapping effective and nontoxic range [2] [µM] | Non-toxic range (Chondrocyte) [3] [µM] | Non-toxic & predicted range of efficacy [2] [µM] | minimal effective concentration (RAW 264.7 cells) [µM] | other results
1 | Clc1cccc(Cl)c1N=C1NCCN1 [Clonidine] | 51 | 61 | 47 | 65 | 56 | 3.0 | 3.0 and 3.0 ± 1.1 | 47.8 | 560.0 | 2.7 | 0.0 | 5.7 | 8.7 and 8.7 ± 3.3 | 1.56 to 100 µM | α2-Receptor agonist and antihypertensive agent Possible induction of iNOS through NF-κB [77] t 1/2 = 6–20 h | 10 to 100 | 0.156 to 100 |  |  | Bone resorption percent, LFC (MIA rat model of OA; clonidine 100 μg/kg s.c.): 72%; Bone resorption percent, LTP (MIA rat model of OA; clonidine 100 μg/kg s.c.): 87%; Bone resorption percent, MFC (MIA rat model of OA; clonidine 100 μg/kg s.c.): 67%; Bone resorption percent, MTP (MIA rat model of OA; clonidine 100 μg/kg s.c.): 83%; Bone resorption percent, mean (MIA rat model of OA; clonidine 100 μg/kg s.c.): 77%; Bone resorption score (MIA rat model of OA; clonidine 100 μg/kg s.c.): 4.3; Cartilage matrix damage score (MIA rat model of OA; clonidine 100 μg/kg s.c.): 3.7 and 3.7 ± 0.9; Mean of all cartilage loss (MIA rat model of OA; clonidine 100 μg/kg s.c.): 64.9; Osteophyte measure (MIA rat model of OA; clonidine 100 μg/kg s.c.): 560.0 µm; Osteophyte score (MIA rat model of OA; clonidine 100 μg/kg s.c.): 2.7; Subchondral bone sclerosis (MIA rat model of OA; clonidine 100 μg/kg s.c.): 0.0; Total joint score w/o matrix (MIA rat model of OA; clonidine 100 μg/kg s.c.): 7.0; Total joint score with matrix (MIA rat model of OA; clonidine 100 μg/kg s.c.): 10.7 and 10.7 ± 2.8; Lowest inhibitory concentration, matrix resorption (RAW 264.7 cells): 10 µM
2 | COc1cc(/C=C/C(=O)CC(=O)/C=C/c2ccc(O)c(OC)c2)ccc1O [Curcumin, Diferuloylmethane] |  |  |  |  |  |  |  |  |  |  |  |  |  | 1.7 to 54 µM |  |  | 0.84 to 27 |  |  | t 1/2 intestinal [1]: 10 min; t 1/2 plasma [1]: 30 to 50 min
3 | CC1(C)O[C@@H]2C[C@H]3[C@@H]4C[C@H](F)C5=CC(=O)C=C[C@]5(C)[C@@]4(F)[C@@H](O)C[C@]3(C)[C@]2(C(=O)CO)O1 [Fluocinolone, Fluocinolone Acetonide] | 67 | 67 | 72 | 67 | 68 | 3.7 | 3.3 and 3.3 ± 1.2 | 53.7 | 706.7 | 3.3 | 0.0 | 7.0 | 10.3 and 10.3 ± 2.7 | 1.56 to 100 µM | Corticosteroid (potent) Blocks IL-1 and TNF production and TNF-induced apoptosis [92] t 1/2 = 1.3 – 1.7 h | 3.1 to 100 | 1.56 to 250 | 3.1 to 250 | 0.00977 | Effective range against Osteoclasts (RAW 264.7 cells): ≥ 9.77 nM
4 | C=CC[C@@H]1/C=C(\C)C[C@H](C)C[C@H](OC)[C@H]2O[C@@](O)(C(=O)C(=O)N3CCCC[C@H]3C(=O)O[C@H](/C(C)=C/[C@@H]3CC[C@@H](O)[C@H](OC)C3)[C@H](C)[C@@H](O)CC1=O)[C@H](C)C[C@@H]2OC [Tacrolimus] | 100 | 100 | 100 | 100 | 100 | 5.0 | 5.0 and 5.0 ± 0.0 | 92.5 | 666.7 | 3.3 | 0.0 | 8.3 | 13.3 and 13.3 ± 1.7 | 1.5 to 100 µM |  | 50 | 0.8 to 50 | 25 to 50 | 0.0026 | 
5 | COc1ccc(C=CC(=O)Nc2ccccc2C(=O)O)cc1OC [Tranilast, N-(3′,4′-dimethoxycinnamoyl)anthranilic acid] | 100 | 100 | 100 | 97 | 99 | 5.0 | 5.0 and 5.0 ± 0.0 | 89.7 | 893.3 | 4.3 | 0.0 | 9.3 | 14.3 and 14.3 ± 0.3 | 0.125 to 8 µM | Anti-inflammatory and analgesic properties in collagen-induced arthritis (RA model) [34]. Suppresses COX-2 and iNOS expression, reduces PGE2 and iNOS-derived NO production in stimulated macrophages. Diminishes TNF-α and IL-1β production [35]. T1/2 = 7.4 h | 1 to 8 | 125000 to 8e+06 | 1 to 8 | 0.5 | 
6 | CC(C)(C)CC(=O)OCC(=O)[C@@]12OC(C)(C)O[C@@H]1C[C@H]1[C@@H]3CCC4=CC(=O)C=C[C@]4(C)[C@@]3(F)[C@@H](O)C[C@@]12C [Triamcinolone hexacetonide] | 35 | 34 | 35 | 32 | 34 | 2.3 | 3.3 ± 0.9 | 61.1 | 453.3 | 2.0 | 0.7 | 5.0 | 8.3 ± 2.6 | 3.12 to 400 µM | Steroid t 1/2 = 88 min | 62.5 to 3750 |  |  | 0.297 | Cartilage matrix damage score (MIA rat model of OA; i.a. weekly, listed as TH): 3.3; Total joint score with matrix (MIA rat model of OA; i.a. weekly, listed as Trimacinolone Hexacetonide): 8.3
7 | CC1=C(CO)C(=O)O[C@@H]([C@@H](C)[C@H]2CC[C@H]3[C@@H]4C[C@H]5O[C@]56[C@@H](O)C=CC(=O)[C@]6(C)[C@H]4CC[C@]23C)C1 [Withaferin A] |  |  |  |  |  |  |  |  |  |  |  |  |  | Toxic | Reportedly inhibits NF-κB activation by preventing the TNF-α-induced activation of IKK-β (IKK-2) [102] Blocks osteoclastogenesis of bone remodeling [103] t 1/2 = 1.36 h | 4.25 to 17 | 0.27 to 2.1 | 0.27 to 2.1 | 0.53 | 
